Assay results taken from patent US20240043860A1, “NOVEL HYDROXYPHENYLPYRUVATE DIOXYGENASE POLYPEPTIDES AND METHODS OF USE THEREOF” (Syngenta Crop Protection AG, priority 2020, published 2024).
Several values for one entry are separate records, joined by “and”; a condition that tells them apart may be missing. Identical values can stand only once. Like-named read-outs stand apart in the source and are kept apart here.

How the values were obtained:
[1] = biological target: HPPD variant AVESA V162 (SEQ ID NO: 122) (Avena sativa, UniProt A0ACD5V6K6, A327R/I340E/L359M/V218I); assay: biochemical; type: biochemical
Chain of HPPD variant AVESA V162 (SEQ ID NO: 122) (A0ACD5V6K6 entry or part of it V218I/A327R/I340E/L359M): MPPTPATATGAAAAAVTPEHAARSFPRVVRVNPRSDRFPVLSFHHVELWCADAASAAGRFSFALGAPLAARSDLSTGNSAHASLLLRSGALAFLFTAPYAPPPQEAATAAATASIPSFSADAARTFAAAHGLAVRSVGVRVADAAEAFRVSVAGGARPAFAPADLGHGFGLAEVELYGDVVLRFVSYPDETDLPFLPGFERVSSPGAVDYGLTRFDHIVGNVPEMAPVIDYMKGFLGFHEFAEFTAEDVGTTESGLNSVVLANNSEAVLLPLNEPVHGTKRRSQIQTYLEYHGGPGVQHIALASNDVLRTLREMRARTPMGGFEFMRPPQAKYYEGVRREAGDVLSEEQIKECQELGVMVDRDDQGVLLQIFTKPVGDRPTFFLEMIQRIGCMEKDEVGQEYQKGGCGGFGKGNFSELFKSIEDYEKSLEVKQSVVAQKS
Method: (§1) 25 ul of the overnight cultures were inoculated into fresh 96-deepwell block containing 1 ml Formedium Autoinduction Media (AIM). The AIM cultures were grown for 3h at 37° C. (900rpm) and then transferred to 20° C. overnight (900rpm) to allow protein expression. The overnight cultures were centrifuged and 500 ul of Cellytic B (Sigma Aldrich) was added to resuspend the cell pellets. The coupled HGO assay (Siehl et al, 2014) is used to generate IC50 values for the HPPD variants of interest.
(§2) E. coli BL21 (DE3) cells were transformed with a pET24a vector containing a C-terminally his-tagged Arabidopsis HGO gene, grown and induced overnight as described for the HPPD variants above. The cell pellet was resuspended in phosphate buffered saline at pH 7.4 containing 10% Glycerol, 1mm Tris[2-carboxyethyl] phosphine-HCl (TCEP) plus 30 mM Imidazole and lysed using lysozyme/benzonase. The extract was clarified by low speed centrifugation and purified in the same buffer down a 1 ml His Gravitrap column. The bound HGO was eluted in 0.25M imidazole and the fractions pooled and beaded into liquid nitrogen. All procedures apart from the centrifugation and beading steps were carried out under a nitrogen atmosphere.
(§3) The coupled HGO assay is carried out by adding 10 ul of HPPD extract to a 96-well plate and then adding 40 ul of reaction buffer (50 mM Bis Tris Propane, pH7.0, 25 mM sodium-L-ascorbate, 400μM mercaptoethanol, 50 μM Fe(II)SO4). The plates are left to incubate for 5 minutes on ice. […] 200 ul of HPP/HGO (197 μM hydroxyphenylpyruvic acid, 16 μl/ml Homogentisic Acid Oxidase in reaction buffer as described above) buffer is then added to the well and the reaction is regularly monitored (e.g. every 30 seconds-5 minutes) for absorbance at 330 nm for a given time period (e.g., for between 15-60 minutes). The data can then be used to calculate the IC50 value for each HPPD variant of interest.

[2] = biological target: HPPD variant AVESA V180 (SEQ ID NO: 124) (Avena sativa, UniProt A0ACD5V6K6, A327R/G411A/I340E/L359M/V218I); assay: biochemical; type: biochemical
Chain of HPPD variant AVESA V180 (SEQ ID NO: 124) (A0ACD5V6K6 entry or part of it V218I/A327R/I340E/L359M/G411A): as the sequence (A0ACD5V6K6 entry or part of it V218I/A327R/I340E/L359M) above, with G411A counted along it
Method: as §1, §2, §3

[3] = biological target: HPPD variant AVESA V358 (SEQ ID NO: 56) (Avena sativa, UniProt A0ACD5V6K6, A327R/I340E/L359M/P271N/R214G/S304T/V218I/V260A); assay: biochemical; type: biochemical
Chain of HPPD variant AVESA V358 (SEQ ID NO: 56) (A0ACD5V6K6 entry or part of it R214G/V218I/V260A/P271N/S304T/A327R/I340E/L359M): as the sequence (A0ACD5V6K6 entry or part of it V218I/A327R/I340E/L359M) above, with R214G, V260A, P271N, S304T counted along it
Method: as §1, §2, §3

[4] = biological target: HPPD variant AVESA V306 (SEQ ID NO: 32) (Avena sativa, UniProt A0ACD5V6K6, A327R/I340E/L359M/P271N/R214G/V218I); assay: biochemical; type: biochemical
Chain of HPPD variant AVESA V306 (SEQ ID NO: 32) (A0ACD5V6K6 entry or part of it R214G/V218I/P271N/A327R/I340E/L359M): as the sequence (A0ACD5V6K6 entry or part of it V218I/A327R/I340E/L359M) above, with R214G, P271N counted along it
Method: as §1, §2, §3

[5] = biological target: HPPD variant AVESA V332 (SEQ ID NO: 44) (Avena sativa, UniProt A0ACD5V6K6, A327R/I340E/K404N/L359M/P271N/R214G/V218I/V260A); assay: biochemical; type: biochemical
Chain of HPPD variant AVESA V332 (SEQ ID NO: 44) (A0ACD5V6K6 entry or part of it R214G/V218I/V260A/P271N/A327R/I340E/L359M/K404N): as the sequence (A0ACD5V6K6 entry or part of it V218I/A327R/I340E/L359M) above, with R214G, V260A, P271N, K404N counted along it
Method: as §1, §2, §3

[6] = biological target: HPPD variant AVESA V296 (SEQ ID NO: 20) (Avena sativa, UniProt A0ACD5V6K6, A327R/G411A/I340E/L359Y/R214G/V218I); assay: biochemical; type: biochemical
Chain of HPPD variant AVESA V296 (SEQ ID NO: 20) (A0ACD5V6K6 entry or part of it R214G/V218I/A327R/I340E/L359Y/G411A): as the sequence (A0ACD5V6K6 entry or part of it V218I/A327R/I340E/L359M) above, with R214G, M359Y, G411A counted along it
Method: as §1, §2, §3

[7] = biological target: HPPD variant AVESA V313 (SEQ ID NO: 38) (Avena sativa, UniProt A0ACD5V6K6, A327R/I340E/L359Y/P271N/R214G/V218I/V260A); assay: biochemical; type: biochemical
Chain of HPPD variant AVESA V313 (SEQ ID NO: 38) (A0ACD5V6K6 entry or part of it R214G/V218I/V260A/P271N/A327R/I340E/L359Y): as the sequence (A0ACD5V6K6 entry or part of it V218I/A327R/I340E/L359M) above, with R214G, V260A, P271N, M359Y counted along it
Method: as §1, §2, §3

[8] = biological target: HPPD variant AVESA V351 (SEQ ID NO: 50) (Avena sativa, UniProt A0ACD5V6K6, A327R/G411A/I340E/L359Y/R214G/S304T/V218I); assay: biochemical; type: biochemical
Chain of HPPD variant AVESA V351 (SEQ ID NO: 50) (A0ACD5V6K6 entry or part of it R214G/V218I/S304T/A327R/I340E/L359Y/G411A): as the sequence (A0ACD5V6K6 entry or part of it V218I/A327R/I340E/L359M) above, with R214G, S304T, M359Y, G411A counted along it
Method: as §1, §2, §3

[9] = test system: transgenic tobacco plants expressing mutant HPPD SEQ ID NO: 122; assay: spray test, herbicidal damage scoring; type: in vivo; settings: 7 days after treatment, 100=complete death, 0=no damage, one value per event
Method: DNA sequences that encode these polypeptides (optimized for tobacco or, optionally, codon optimized according to a target crop such as soybean) were prepared synthetically. Each sequence was designed to include a 5′ fusion with TMV omega 5′ leader sequence such that they are flanked at the 5′ end with XhoI and at the 3′ end with KpnI to facilitate direct cloning into a suitable binary vector for Agrobacterium-based plant transformation.
For example, a master plate of Agrobacterium tumefaciens containing the HPPD expressing the binary vector is used to inoculate 10 ml LB (L broth) containing 100 mg/l Rifampicin plus 50 mg/l Kanamycin using a single bacterial colony. This is incubated overnight at 28° C. shaking at 200 rpm. This entire overnight culture is used to inoculate a 50 ml volume of LB containing the same antibiotics. Again this is cultured overnight at 28° C. shaking at 200 rpm. The Agrobacterium cells are pelleted by centrifuging at 3000 rpm for 15 minutes and then resuspended in MS (Murashige and Skoog) medium containing 30 g/l sucrose, pH 5.9 to an OD […]=0.6. This suspension is dispensed in 25 ml aliquots into petri dishes.
Once rooted, plantlets are transferred from agar and potted into 50% peat, 50% John Innes Soil No. 3 or, for example, MetroMix® 380 soil (Sun Gro Horticulture, Bellevue, WA) with slow-release fertilizer in 3 inch round or 4 inch square pots and left regularly watered to establish for 8-12d in the glass house. Glass house conditions are about 24-27° C. day; 18-21° C. night and approximately a 14h (or longer in UK summer) photoperiod.
About 20-30 TO events are produced for a number of HPPD variant genes.
Single copy events amongst the Ti plant lines are identified by their 3:1 segregation ratio (with respect to kanamycin and/or herbicide) and by quantitative RT-PCR. Seed from the thus selected Ti tobacco (var. Samsun) lines are sown in 3 inch diameter pots containing 50% peat and 50% John Innes Soil No. 3. […] HPPD expression levels were monitored by Western analysis.
Tables 4.1-4.9 show the herbicidal damage scoring on transgenic tobacco plants 7 days after treatment. A score of 100=complete death and 0=no damage observed.

[10] = test system: HPPD variant AVESA V349 (SEQ ID NO: 47); assay: biochemical; type: biochemical, Avena sativa
Method: as §1, §2, §3

[11] = AVESA V162, SEQ ID NO: 122, read-out: IC50
[12] = AVESA V180, SEQ ID NO: 124, read-out: IC50
[13] = AVESA V358, SEQ ID NO: 56, read-out: IC50
[14] = AVESA V306, SEQ ID NO: 32, read-out: IC50
[15] = AVESA V332, SEQ ID NO: 44, read-out: IC50
[16] = AVESA V296, SEQ ID NO: 20, read-out: IC50
[17] = AVESA V313, SEQ ID NO: 38, read-out: IC50
[18] = AVESA V351, SEQ ID NO: 50, read-out: IC50

Molecule	IC50 [1, 11] [µM]	IC50 [2, 12] [µM]	IC50 [3, 13] [µM]	IC50 [4, 14] [µM]	IC50 [5, 15] [µM]	IC50 [6, 16] [µM]	IC50 [7, 17] [µM]	IC50 [8, 18] [µM]	IC50 fold improvement compared to SEQ ID NO: 122 [10] [×]	further results
COc1ccc(-n2nc(C)cc(C(=O)C3C(=O)CCCC3=O)c2=O)cc1OC [Herbicide C, dioxopyritrione]	0.25	0.61	< 0.19	> 50	> 50	1.3	~0.2	14.3	> 200	herbicidal damage scoring, Herbicide C 100 g/ha ([9]; Table 3.1, plants expressing SEQ ID 122): 90 and 70 and 95 and 96; herbicidal damage scoring, Herbicide C (200 g/ha) ([9]; Table 4.4, SEQ ID NO: 122): 99 and 95 and 97 and 98
bicyclopyrone	0.38	55.6	< 0.39	10.2	102	> 500	< 0.39	> 500	27	herbicidal damage scoring, Bicyclopyrone (800 g/ha) ([9]; Table 4.4, SEQ ID NO: 122): 60 and 50 and 55 and 65 and 35 and 70 and 40
Cn1nnnc1NC(=O)c1ccc(C(F)(F)F)nc1-n1cncn1 [Herbicide D, N-(1-methyltetrazol-5-yl)-2-(1,2,4-triazol-1-yl)-6-(trifluoromethyl)pyridine-3-carboxamide]									29	IC50 [1]: 6.73 µM; IC50 [2]: > 500 µM; IC50 [3]: 177 µM; IC50 [4]: 129 µM; IC50 [5]: 134 µM; IC50 [6]: > 500 µM; IC50 [7]: 205 µM; IC50 [8]: > 500 µM; herbicidal damage scoring, Herbicide D (2000 g/ha) ([9]; Table 4.4, SEQ ID NO: 122): 80 and 70 and 65 and 75 and 85 and 60
